This passage reports Ki and IC50 results from patent publication US20250059182A1, “SOS1 INHIBITORS” (Mirati Therapeutics, Inc., priority 2021, published 2025).

Structures can show the parent of a compound that is named as a salt. Where two headings read alike, the source gives them in different places.

By Ki is commonly meant a measure of affinity in units of concentration, obtained from inhibition or displacement. In general, IC50 refers to the concentration that inhibits the measured activity by half.

Experiment [1] addresses T1, recombinant human SOS1 polypeptide (amino acids 560-1049) (Homo sapiens, UniProt Q07889).
T1 construct: corresponding to amino acids 560-1049, expressed in E. Coli; made in house; host or cells: E. coli
T1 sequence (Q07889 560-1049): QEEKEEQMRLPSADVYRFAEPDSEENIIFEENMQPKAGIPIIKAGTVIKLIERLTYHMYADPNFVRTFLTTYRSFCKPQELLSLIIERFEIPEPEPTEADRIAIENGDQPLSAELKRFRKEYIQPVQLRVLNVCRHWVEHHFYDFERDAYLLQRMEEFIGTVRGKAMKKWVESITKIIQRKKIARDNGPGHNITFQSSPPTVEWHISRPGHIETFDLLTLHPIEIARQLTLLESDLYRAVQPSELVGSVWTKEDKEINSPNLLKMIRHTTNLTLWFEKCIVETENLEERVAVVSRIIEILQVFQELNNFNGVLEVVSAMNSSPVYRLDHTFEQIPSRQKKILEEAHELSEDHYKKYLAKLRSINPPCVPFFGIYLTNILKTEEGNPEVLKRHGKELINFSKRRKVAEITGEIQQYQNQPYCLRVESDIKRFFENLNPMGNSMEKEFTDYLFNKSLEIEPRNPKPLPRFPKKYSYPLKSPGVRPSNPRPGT
The experiment in a line: HTRF displacement assay: inhibition of labeled tracer binding to SOS1. (TR-FRET usually uses a lanthanide donor and a delayed reading to cut background.)

For the next experiment, the system named is pERK in MKN1 cells. The experiment is described as follows: pERK inhibition, In-Cell Western (LI-COR Odyssey), MKN1 cells. Format: cell-based. In outline: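 MKN1 cells were exposed for about 0.5–1 h at 37 °C to nine 3-fold dilutions starting at 10 µM. Cells were then fixed in formaldehyde, permeabilised with methanol, and immunostained for pERK and GAPDH with near-infrared secondary antibodies. GAPDH-normalised pERK signal relative to vehicle gave % inhibition, from which IC50 was fitted.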

The mark [2] stands for this setting: Table A1, Morrison equation for competitive binding.
[3] abbreviates: Homo sapiens, MKN-1, Table B1, MKN1 or H358 cells (table does not say which), 0.5-1 hour incubation, read-out: IC50 (nM), pERK inhibition.
Where [4] appears, read: Table A, Morrison equation for competitive binding.
[5] abbreviates: Homo sapiens, MKN-1, Table B, MKN1 or H358 cells (table does not say which), 0.5-1 hour incubation, read-out: IC50 (nM), pERK inhibition.

As for `Cc1nnc(N[C@H](C)c2cccc(C(F)(F)F)c2F)c2cc(N(C)[C@H]3CCN(C)C3)c(F)cc12` [Example P-181, 6-fluoro-N^1-((R)-1-(2-fluoro-3-(trifluoromethyl)phenyl)ethyl)-N7,4-dimethyl-N^7-((S)-1-methylpyrrolidin-3-yl)phthalazine-1,7-diamine], in experiment [1] (setting [2]), the Ki amounted to 0.711 nM. In addition, the IC50 with pERK in MKN1 cells (setting [3]) worked out at 223 nM.

With `CCN(c1cc2c(N[C@H](C)c3cccc(C#N)c3C)nnc(C)c2cn1)C1CCN(C)C1` (stereo in doubt) [Example 1-104, 3-((R)-1-((7-(ethyl((S)-1-methylpyrrolidin-3-yl)amino)-4-methylpyrido[3,4-d]pyridazin-1-yl)amino)ethyl)-2-methylbenzonitrile], the inhibition constant Ki in experiment [1] (setting [4]) is 0.901 nM. The IC50 in the experiment with pERK in MKN1 cells (Table B, MKN1 or H358 cells (table does not say which), 0.5-1 hour incubation, read-out: IC50 (nM), pERK inhibition) was 75.5 nM.

On to `Cc1c(C#N)cccc1[C@@H](C)Nc1nnc(C)c2cc(F)c(N3CCC3)cc12` [Example P-223, (R)-3-(1-((7-(azetidin-1-yl)-6-fluoro-4-methylphthalazin-1-yl)amino)ethyl)-2-methylbenzonitrile formic acid salt], for which the Ki in experiment [1] (setting [2]) was 9.3 nM. Moreover, in the experiment with pERK in MKN1 cells (Homo sapiens, MKN-1, read-out: IC50 (nM), pERK inhibition), the IC50 was determined as 141 nM.

For `Cc1nnc(N[C@H](C)c2cccc(C(F)(F)F)c2F)c2cc(N(C)[C@@H]3CCCN(C)C3)ncc12` [Example 1-90, N^1-((R)-1-(2-fluoro-3-(trifluoromethyl)phenyl)ethyl)-N^7,4-dimethyl-N^7-((R)-1-methylpiperidin-3-yl)pyrido[3,4-d]pyridazine-1,7-diamine], the Ki in experiment [1] (setting [4]) worked out at 0.453 nM. For the same compound, the half-inhibitory concentration (IC50) in the experiment on pERK in MKN1 cells (setting [5]) is 102 nM.

For `Cc1nnc(N[C@H](C)c2cccc3c2OCC3(F)F)c2cc(N3CC4(CN(C)C4)C3)ncc12` [Example 1-99, (R)-N-(1-(3,3-difluoro-2,3-dihydrobenzofuran-7-yl)ethyl)-4-methyl-7-(6-methyl-2,6-diazaspiro[3.3]heptan-2-yl)pyrido[3,4-d]pyridazin-1-amine], in experiment [1] (setting [4]), the Ki turned out to be 0.357 nM. Besides, the IC50 in the experiment with pERK in MKN1 cells (setting [5]) is 19.1 nM.

In the case of `Cc1c(C#N)cccc1[C@@H](C)Nc1nnc(C)c2cc(Cl)c(N3CCC34CN(C)C4)cc12` [Example P-198, (R)-3-(1-((6-chloro-4-methyl-7-(6-methyl-1,6-diazaspiro[3.3]heptan-1-yl)phthalazin-1-yl)amino)ethyl)-2-methylbenzonitrile], the Ki in experiment [1] (setting [2]) stood at 1.1 nM. Besides, the IC50 in the experiment with pERK in MKN1 cells (setting [3]) is 182 nM.

Consider `Cc1c(C#N)cccc1[C@@H](C)Nc1nnc(C)c2cnc(N3CCN(C)C(C)(C)C3)cc12` [Example 1-69, (R)-2-methyl-3-(1-((4-methyl-7-(3,3,4-trimethylpiperazin-1-yl)pyrido[3,4-d]pyridazin-1-yl)amino)ethyl)benzonitrile], for which the Ki in experiment [1] (setting [4]) came out at 0.849 nM. For the same compound, the IC50 with pERK in MKN1 cells (setting [5]) turned out to be 39 nM.

`Cc1c(C#N)cccc1[C@@H](C)Nc1nnc(C)c2cnc(N3CCN(C)C[C@H]3C)cc12` [Example 1-16, 3-((R)-1-((7-((R)-2,4-dimethylpiperazin-1-yl)-4-methylpyrido[3,4-d]pyridazin-1-yl)amino)ethyl)-2-methylbenzonitrile]: in experiment [1] (setting [4]), the inhibitory constant (Ki) is 0.526 nM. Besides, in the experiment with pERK in MKN1 cells (setting [5]), the IC50 came to 34.5 nM.

On to `Cc1c(C#N)cccc1[C@@H](C)Nc1nnc(C)c2cc(Cl)c(N(C)[C@H]3CCN(C)C3)cc12` [Example P-193, 3-((R)-1-((6-chloro-4-methyl-7-(methyl((S)-1-methylpyrrolidin-3-yl)amino)phthalazin-1-yl)amino)ethyl)-2-methylbenzonitrile], for which the inhibition constant Ki in experiment [1] (setting [2]) stood at 1.47 nM. Besides, in the experiment with pERK in MKN1 cells (setting [3]), the IC50 is 512 nM.

For `Cc1nnc(N[C@H](C)c2cccc(C(F)(F)F)c2F)c2cc(N3CCN(C)CC3)c(F)cc12` [Example 4-7, (R)-6-fluoro-N-(1-(2-fluoro-3-(trifluoromethyl)phenyl)ethyl)-4-methyl-7-(4-methylpiperazin-1-yl)phthalazin-1-amine], the Ki in experiment [1] (setting [4]) is 1.06 nM. Also, the IC50 in the experiment on pERK in MKN1 cells (setting [5]) was determined as 110 nM.

As for `Cc1nnc(N[C@H](C)c2cccc(C(C)(F)F)c2F)c2cc(-c3ccc(=O)n(C)c3)c(F)cc12` [Example P-173, (R)-5-(4-((1-(3-(1,1-difluoroethyl)-2-fluorophenyl)ethyl)amino)-7-fluoro-1-methylphthalazin-6-yl)-1-methylpyridin-2(1H)-one], the inhibition constant (Ki) in experiment [1] (setting [2]) was 8.31 nM. Besides, in the experiment with pERK in MKN1 cells (setting [3]), the IC50 turned out to be 573 nM.

With `Cc1c(C#N)cccc1[C@@H](C)Nc1nnc(C)c2cnc(N3CC(C)(N4CCCC4)C3)cc12` [Example 1-4, (R)-2-methyl-3-(1-((4-methyl-7-(3-methyl-3-(pyrrolidin-1-yl)azetidin-1-yl)pyrido[3,4-d]pyridazin-1-yl)amino)ethyl)benzonitrile], the inhibition constant (Ki) in experiment [1] (setting [4]) is 1.22 nM. In addition, in the experiment on pERK in MKN1 cells (setting [5]), the IC50 is 62.6 nM.

For `Cc1nnc(N[C@H](C)c2cc(N)cc(C(F)(F)F)c2F)c2cc(N3CC4CC(C3)O4)ncc12` [Example 1-94, N-((R)-1-(5-amino-2-fluoro-3-(trifluoromethyl)phenyl)ethyl)-7-(6-oxa-3-azabicyclo[3.1.1]heptan-3-yl)-4-methylpyrido[3,4-d]pyridazin-1-amine], the Ki in experiment [1] (setting [4]) was 0.264 nM. Moreover, the IC50 in the experiment on pERK in MKN1 cells (setting [5]) is 15.4 nM.

Take `Cc1c(C#N)cccc1[C@@H](C)Nc1nnc(C)c2cnc(N3CCc4c(cnn4C)C3)cc12` [Example P-39, (R)-2-methyl-3-(1-((4-methyl-7-(1-methyl-1,4,6,7-tetrahydro-5H-pyrazolo[4,3-c]pyridin-5-yl)pyrido[3,4-d]pyridazin-1-yl)amino)ethyl)benzonitrile]: in experiment [1] (setting [2]), the Ki was 1.1 nM. In addition, the IC50 in the experiment on pERK in MKN1 cells (setting [3]) is 96.9 nM.

Consider `Cc1c([C@@H](C)Nc2nnc(C)c3cnc(N4CC5(CC(N(C)C)C5)C4)cc23)cccc1C(F)(F)F` [Example 1-66, (R)-7-(6-(dimethylamino)-2-azaspiro[3.3]heptan-2-yl)-4-methyl-N-(1-(2-methyl-3-(trifluoromethyl)phenyl)ethyl)pyrido[3,4-d]pyridazin-1-amine], for which the inhibition constant (Ki) in experiment [1] (setting [4]) came to 0.106 nM. The IC50 with pERK in MKN1 cells (setting [5]) was found to be 32.4 nM.

`Cc1c([C@@H](C)Nc2nnc(C)c3cnc(N4CC5(CN(C)C5)C4)cc23)cccc1C(F)(F)F` [Example 1-32, (R)-4-methyl-N-(1-(2-methyl-3-(trifluoromethyl)phenyl)ethyl)-7-(6-methyl-2,6-diazaspiro[3.3]heptan-2-yl)pyrido[3,4-d]pyridazin-1-amine]: in experiment [1] (setting [4]), the Ki was 0.163 nM. Besides, the half-inhibitory concentration (IC50) in the experiment on pERK in MKN1 cells (setting [5]) came to 32.3 nM.

For `Cc1c(C#N)cccc1[C@@H](C)Nc1nnc(C)c2cnc(N(C)[C@H]3CCN(C)C3)cc12` [Example 1-5, 2-methyl-3-((R)-1-((4-methyl-7-(methyl((S)-1-methylpyrrolidin-3-yl)amino)pyrido[3,4-d]pyridazin-1-yl)amino)ethyl)benzonitrile], the inhibition constant (Ki) in experiment [1] (setting [4]) is 0.683 nM. Besides, in the experiment on pERK in MKN1 cells (setting [5]), the IC50 was determined as 57.2 nM.

Consider `Cc1c(C#N)cccc1[C@@H](C)Nc1nnc(C)c2cnc(N(C)[C@@H]3CCOC3)cc12` [Example 1-74, 2-methyl-3-((R)-1-((4-methyl-7-(methyl((R)-tetrahydrofuran-3-yl)amino)pyrido[3,4-d]pyridazin-1-yl)amino)ethyl)benzonitrile], for which the inhibition constant (Ki) in experiment [1] (setting [4]) is 2.34 nM. Moreover, the IC50 in the experiment with pERK in MKN1 cells (setting [5]) stood at 39.9 nM.

Regarding `Cc1c(C#N)cccc1[C@@H](C)Nc1nnc(C)c2cc(F)c(N3CCC34COC4)cc12` [Example P-230, (R)-3-(1-((6-fluoro-4-methyl-7-(6-oxa-1-azaspiro[3.3]heptan-1-yl)phthalazin-1-yl)amino)ethyl)-2-methylbenzonitrile], the Ki in experiment [1] (setting [2]) amounted to 2.51 nM. Moreover, the IC50 in the experiment with pERK in MKN1 cells (setting [3]) worked out at 26 nM.
